pIC50: −log10 of the molar value.
Tests used:
EGFR = EGFR (Homo sapiens, UniProt P00533); test: Kinase-Glo Plus RTK selectivity assay, EGFR; type: biochemical; conditions: 10 μM ATP
Procedure: (§1) A 50 μL reaction mixture contains 40 mM Tris, pH 7.4, 10 mM MgCl2, 0.1 mg/ml BSA, 1 mM DTT, 10 μM ATP, kinase and substrate (0.2 mg/mL Poly(Glu, Tyr)/10 μM ATP). The test compounds were diluted in 10% DMSO and 5 μL of the dilution was added to a 50 μL reaction so that the final concentration of DMSO is 1% in all of reactions. The assay was performed using Kinase-Glo Plus luminescence kinase assay kit. It measures kinase activity by quantitating the amount of ATP remaining in solution following a kinase reaction. The luminescent signal from the assay is correlated with the amount of ATP present and is inversely correlated with the amount of kinase activity. The IC50 values were calculated using nonlinear regression with normalized dose−response fit using Prism GraphPad software.

VEGFR-1 = VEGFR-1 (Homo sapiens, UniProt P17948); test: Kinase-Glo Plus RTK selectivity assay, VEGFR-1; type: biochemical; conditions: 10 μM ATP
Procedure: as §1

EA.hy926 cells = test: Apoptosis detection assay (annexin V-FITC/PI flow cytometry); type: cell-based, human; conditions: 48 h, negative control 10.35%
Procedure: A substantial and dose-dependent proapoptotic activity in HECs at various concentrations for 48 h was observed. The apoptotic EA.hy926 cells (10.35%) of negative control group were depicted in Figure 3A.
The cells were then harvested by trypsinization and washed twice with cold PBS. After centrifugation and removal of the supernatants, EA.hy926 cells were re-suspended in 400 μL of 1×binding buffer which was then added to 5 μL of annexin V-FITC and incubated at room temperature for 15 min. After adding 10 μL of PI the cells were incubated at room temperature for another 15 min in the dark. The stained cells were analyzed by a flow cytometer (BD Accuri C6).

[1] = test system: human epidermoid carcinoma cell line (A431); test: Anti-proliferative MTT assay, A431; type: cell-based; conditions: A-431, 48 h
Procedure: (§2) These RTKs play critical roles in the proliferation of various cancers. Therefore, RTKs inhibition generally translate well into anti-proliferation activity.
(§3) Exponentially growing cells were harvested and plated in 96-well plates at a concentration of 1×10^4 cells/well per well, and then were incubated at 37°C for 24 h. […] Subsequently, 22 μL fresh MTT (5 mg/mL) was added to each well and incubated at 37°C for 4 h. […] DMSO was added to each well after supernatant was discarded. Absorbance values were determined by a microplate reader (Bio-Rad Instruments) at 490 nm. The IC50 values were calculated according to inhibition ratios.

c-Kit = c-Kit (Homo sapiens, UniProt P10721); test: Kinase-Glo Plus RTK selectivity assay, c-Kit; type: biochemical; conditions: 10 μM ATP
Procedure: as §1

[2] = test system: human cervical cancer cell line (HeLa); test: Anti-proliferative MTT assay, HeLa; type: cell-based; conditions: 48 h
Procedure: as §2, §3

EphB4 = molecular target: T1, EphB4 (Homo sapiens, UniProt P54760); test: ADP-Glo in vitro RTK inhibition assay, EphB4; type: biochemical; conditions: ATP 50 μM
T1 sequence (P54760 16-987): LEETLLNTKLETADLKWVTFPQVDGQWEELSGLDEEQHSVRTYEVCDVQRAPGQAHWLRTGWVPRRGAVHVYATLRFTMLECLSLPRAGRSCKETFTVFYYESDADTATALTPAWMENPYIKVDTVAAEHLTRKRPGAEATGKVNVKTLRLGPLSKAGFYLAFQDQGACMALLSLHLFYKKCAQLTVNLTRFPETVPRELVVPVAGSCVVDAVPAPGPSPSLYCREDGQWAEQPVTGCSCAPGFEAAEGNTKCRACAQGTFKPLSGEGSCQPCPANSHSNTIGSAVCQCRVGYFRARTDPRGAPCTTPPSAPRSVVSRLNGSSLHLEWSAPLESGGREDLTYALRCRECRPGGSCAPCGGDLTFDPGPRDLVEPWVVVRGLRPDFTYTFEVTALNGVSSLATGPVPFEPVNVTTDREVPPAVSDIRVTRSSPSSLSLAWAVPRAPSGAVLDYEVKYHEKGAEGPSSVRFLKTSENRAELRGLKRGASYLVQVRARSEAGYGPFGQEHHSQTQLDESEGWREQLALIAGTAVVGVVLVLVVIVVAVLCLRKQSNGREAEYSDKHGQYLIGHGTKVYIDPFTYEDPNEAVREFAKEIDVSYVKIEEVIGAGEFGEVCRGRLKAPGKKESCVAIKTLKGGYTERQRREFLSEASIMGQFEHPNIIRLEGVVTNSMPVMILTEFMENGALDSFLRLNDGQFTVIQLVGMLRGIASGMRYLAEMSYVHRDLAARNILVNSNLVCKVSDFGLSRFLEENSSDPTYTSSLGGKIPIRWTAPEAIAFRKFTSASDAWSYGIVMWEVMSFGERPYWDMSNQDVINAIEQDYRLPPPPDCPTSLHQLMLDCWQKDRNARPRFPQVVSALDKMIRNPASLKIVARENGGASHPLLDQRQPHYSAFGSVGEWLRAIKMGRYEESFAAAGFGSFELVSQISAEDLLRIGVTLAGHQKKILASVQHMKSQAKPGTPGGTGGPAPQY
Procedure: (§4) In order to validate the direct effect of title compounds on VEGFR-2, Tie-2, and EphB4 kinases, we performed in vitro assay using the ADP-Glo Kinase Assay Kit (Promega, Wisconsin, USA).
(§5) The kinase assay was performed in a reaction mixture of final volume of 10 μL. […] The plate was incubated at 30°C for 1 h. After the plate was cooled at room temperature for 5 min, 5 μL of ADP-Glo reagent was added into each well to stop the reaction and consume the remaining […] within 40 min. At the end, 10 μL of kinase detection reagent was added into the well and incubated for 30 min to produce a luminescence signal. […] The assay plate was incubated at 30°C for 4 h. After the plate was cooled at room temperature for 5 min, 5 μL of ADP-Glo reagent was added into each well to stop the reaction and consume the remaining […] within 1 h. At the end, 10 μL of kinase detection reagent was added into each well and incubated for 30 min to produce a luminescence signal. The luminescence was read by VICTOR-X multi-label plate reader.

FGFR-4 = FGFR-4 (Homo sapiens, UniProt P22455); test: Kinase-Glo Plus RTK selectivity assay, FGFR-4; type: biochemical; conditions: 10 μM ATP
Procedure: as §1

[3] = test system: human pancreatic cancerous cell lines (PANC-1); test: Anti-proliferative MTT assay, PANC-1; type: cell-based; conditions: 48 h
Procedure: as §2, §3

VEGFR-2 = VEGFR-2 (Homo sapiens, UniProt P35968); test: ADP-Glo in vitro RTK inhibition assay, VEGFR-2; type: biochemical; conditions: ATP 50 μM
Procedure: as §4, §5

Chain of VEGFR-1 (P17948 27-1338, species assumed): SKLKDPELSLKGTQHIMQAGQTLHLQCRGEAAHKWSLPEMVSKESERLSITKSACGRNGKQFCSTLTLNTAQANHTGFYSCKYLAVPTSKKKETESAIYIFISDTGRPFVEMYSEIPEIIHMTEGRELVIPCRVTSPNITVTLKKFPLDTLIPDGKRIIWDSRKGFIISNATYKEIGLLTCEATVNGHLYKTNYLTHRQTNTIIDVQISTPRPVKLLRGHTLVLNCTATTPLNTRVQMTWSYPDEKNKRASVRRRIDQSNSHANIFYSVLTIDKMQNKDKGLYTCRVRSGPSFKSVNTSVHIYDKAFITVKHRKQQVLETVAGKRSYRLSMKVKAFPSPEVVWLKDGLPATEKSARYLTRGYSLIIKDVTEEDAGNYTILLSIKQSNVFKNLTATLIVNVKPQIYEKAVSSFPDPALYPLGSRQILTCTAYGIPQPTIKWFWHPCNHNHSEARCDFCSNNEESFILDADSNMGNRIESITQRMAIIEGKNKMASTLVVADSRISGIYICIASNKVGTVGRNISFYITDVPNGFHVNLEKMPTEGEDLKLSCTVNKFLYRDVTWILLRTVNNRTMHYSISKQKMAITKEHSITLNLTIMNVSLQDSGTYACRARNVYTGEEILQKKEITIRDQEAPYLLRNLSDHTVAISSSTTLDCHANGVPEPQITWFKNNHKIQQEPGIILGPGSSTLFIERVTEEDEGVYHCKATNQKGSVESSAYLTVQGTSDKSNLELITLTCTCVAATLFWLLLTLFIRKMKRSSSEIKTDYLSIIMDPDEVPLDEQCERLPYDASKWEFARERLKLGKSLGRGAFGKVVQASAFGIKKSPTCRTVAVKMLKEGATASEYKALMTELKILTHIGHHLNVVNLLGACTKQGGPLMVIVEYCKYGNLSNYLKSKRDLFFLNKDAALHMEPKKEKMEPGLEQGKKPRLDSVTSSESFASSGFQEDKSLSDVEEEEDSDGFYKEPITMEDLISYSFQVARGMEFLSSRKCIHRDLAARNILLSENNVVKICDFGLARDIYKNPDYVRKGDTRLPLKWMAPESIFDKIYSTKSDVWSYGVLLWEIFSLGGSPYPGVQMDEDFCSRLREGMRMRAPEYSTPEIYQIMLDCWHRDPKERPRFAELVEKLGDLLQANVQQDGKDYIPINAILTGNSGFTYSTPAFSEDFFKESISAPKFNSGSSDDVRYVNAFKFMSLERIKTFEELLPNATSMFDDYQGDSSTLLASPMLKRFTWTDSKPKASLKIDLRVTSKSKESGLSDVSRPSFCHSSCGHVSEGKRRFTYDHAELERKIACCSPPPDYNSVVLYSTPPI
Chain of FGFR-4 (P22455 22-802, species assumed): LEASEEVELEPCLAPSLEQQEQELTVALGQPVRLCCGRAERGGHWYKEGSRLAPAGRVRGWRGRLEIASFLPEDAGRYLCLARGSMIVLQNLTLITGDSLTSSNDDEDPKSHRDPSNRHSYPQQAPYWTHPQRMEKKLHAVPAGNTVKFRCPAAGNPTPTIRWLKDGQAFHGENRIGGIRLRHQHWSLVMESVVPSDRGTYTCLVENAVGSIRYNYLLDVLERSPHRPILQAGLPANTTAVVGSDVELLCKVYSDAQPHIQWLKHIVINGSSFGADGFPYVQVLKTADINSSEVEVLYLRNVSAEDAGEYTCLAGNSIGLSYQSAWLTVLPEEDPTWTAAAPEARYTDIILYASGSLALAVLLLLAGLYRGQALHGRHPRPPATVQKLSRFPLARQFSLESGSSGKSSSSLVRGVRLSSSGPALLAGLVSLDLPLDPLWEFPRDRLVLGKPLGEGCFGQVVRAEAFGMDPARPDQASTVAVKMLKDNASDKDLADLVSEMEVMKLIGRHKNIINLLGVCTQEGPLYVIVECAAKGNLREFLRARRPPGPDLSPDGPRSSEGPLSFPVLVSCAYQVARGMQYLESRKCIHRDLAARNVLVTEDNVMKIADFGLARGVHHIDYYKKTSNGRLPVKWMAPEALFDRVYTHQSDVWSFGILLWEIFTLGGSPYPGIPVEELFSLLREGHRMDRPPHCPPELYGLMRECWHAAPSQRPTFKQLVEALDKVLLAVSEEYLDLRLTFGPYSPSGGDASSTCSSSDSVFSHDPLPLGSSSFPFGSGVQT
Chain of c-Kit (P10721 26-976): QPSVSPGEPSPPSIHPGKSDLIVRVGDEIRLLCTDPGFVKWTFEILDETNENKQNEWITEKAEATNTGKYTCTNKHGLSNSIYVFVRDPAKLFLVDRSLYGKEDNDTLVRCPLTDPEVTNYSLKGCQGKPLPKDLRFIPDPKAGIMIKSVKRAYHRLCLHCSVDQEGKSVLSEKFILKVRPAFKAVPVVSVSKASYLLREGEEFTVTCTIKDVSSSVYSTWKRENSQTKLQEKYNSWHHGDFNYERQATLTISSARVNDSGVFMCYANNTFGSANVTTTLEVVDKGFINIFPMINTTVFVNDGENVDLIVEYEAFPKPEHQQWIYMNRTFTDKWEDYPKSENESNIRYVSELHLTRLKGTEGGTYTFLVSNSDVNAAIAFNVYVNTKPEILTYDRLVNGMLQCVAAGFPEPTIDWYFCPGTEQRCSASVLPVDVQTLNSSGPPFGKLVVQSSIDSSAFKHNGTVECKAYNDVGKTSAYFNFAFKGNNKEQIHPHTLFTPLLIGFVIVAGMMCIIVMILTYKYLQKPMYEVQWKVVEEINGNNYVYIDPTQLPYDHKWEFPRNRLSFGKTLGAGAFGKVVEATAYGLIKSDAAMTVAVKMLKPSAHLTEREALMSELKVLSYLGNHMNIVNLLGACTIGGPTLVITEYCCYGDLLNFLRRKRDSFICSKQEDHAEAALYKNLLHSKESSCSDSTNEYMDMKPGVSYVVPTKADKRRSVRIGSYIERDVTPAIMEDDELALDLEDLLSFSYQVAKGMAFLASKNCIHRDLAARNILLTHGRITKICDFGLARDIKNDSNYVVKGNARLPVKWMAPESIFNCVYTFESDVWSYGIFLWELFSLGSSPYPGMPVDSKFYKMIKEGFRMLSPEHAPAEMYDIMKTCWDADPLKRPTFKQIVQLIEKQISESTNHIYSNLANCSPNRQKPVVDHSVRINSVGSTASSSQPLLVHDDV
Chain of EGFR (P00533 25-1210, species assumed): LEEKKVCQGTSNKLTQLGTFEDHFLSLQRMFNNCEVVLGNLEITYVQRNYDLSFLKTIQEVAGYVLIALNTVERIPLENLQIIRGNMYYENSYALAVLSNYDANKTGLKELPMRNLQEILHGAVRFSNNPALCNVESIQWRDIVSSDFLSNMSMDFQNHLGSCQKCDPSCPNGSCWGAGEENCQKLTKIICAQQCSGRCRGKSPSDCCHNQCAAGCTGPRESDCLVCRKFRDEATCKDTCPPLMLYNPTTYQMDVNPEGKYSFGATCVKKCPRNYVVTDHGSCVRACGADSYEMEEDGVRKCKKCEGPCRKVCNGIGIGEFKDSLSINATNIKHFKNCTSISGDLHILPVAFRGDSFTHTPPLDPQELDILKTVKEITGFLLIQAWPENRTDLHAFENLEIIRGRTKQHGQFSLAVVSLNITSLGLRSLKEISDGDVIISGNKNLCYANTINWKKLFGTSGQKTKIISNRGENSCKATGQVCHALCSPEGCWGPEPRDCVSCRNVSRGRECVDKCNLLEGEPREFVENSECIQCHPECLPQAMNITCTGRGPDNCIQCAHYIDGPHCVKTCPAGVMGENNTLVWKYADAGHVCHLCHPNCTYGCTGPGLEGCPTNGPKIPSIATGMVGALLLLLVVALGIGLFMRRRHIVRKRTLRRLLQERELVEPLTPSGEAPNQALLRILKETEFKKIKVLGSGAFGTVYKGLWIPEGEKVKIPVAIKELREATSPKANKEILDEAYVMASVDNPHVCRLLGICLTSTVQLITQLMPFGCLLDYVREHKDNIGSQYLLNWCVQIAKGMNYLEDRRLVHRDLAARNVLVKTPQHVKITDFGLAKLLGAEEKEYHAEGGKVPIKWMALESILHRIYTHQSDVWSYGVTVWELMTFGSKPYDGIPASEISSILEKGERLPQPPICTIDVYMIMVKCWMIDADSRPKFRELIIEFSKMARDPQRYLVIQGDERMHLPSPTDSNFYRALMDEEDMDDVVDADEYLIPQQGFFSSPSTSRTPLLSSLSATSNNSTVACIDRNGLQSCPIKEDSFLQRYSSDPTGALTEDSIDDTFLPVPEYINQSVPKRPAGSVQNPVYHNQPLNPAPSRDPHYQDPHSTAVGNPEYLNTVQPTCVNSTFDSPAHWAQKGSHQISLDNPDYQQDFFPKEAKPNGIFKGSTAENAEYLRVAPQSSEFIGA

What does the source list for O=C(Nc1ccc(-c2ccc3c(=O)[nH]cnc3c2)cc1)Nc1ccc(F)c(F)c1 [QDAU5, 1-(3,4-difluorophenyl)-3-(4-(4-oxo-3,4-dihydroquinazolin-7-yl)phenyl)urea]?
pIC50 (EGFR): 7.01; pIC50 (VEGFR-1): 6.72; percentage of early apoptotic cells (EA.hy926 cells; EA.hy926, 5 nM): 19.55%; percentage of early apoptotic cells (EA.hy926 cells; EA.hy926, 20 nM): 28.35%; percentage of early apoptotic cells (EA.hy926 cells; EA.hy926, 40 nM): 31.43%; pIC50 [1]: 4.77; pIC50 (c-Kit): 6.85; pIC50 [2]: 5.25; pIC50 (EphB4): 8.49; pIC50 (FGFR-4): < 6.30; pIC50 [3]: 4.60; pIC50 (VEGFR-2): 9.11

— paper PMC5739597, “Discovery and evaluation of triple inhibitors of VEGFR-2, TIE-2 and EphB4 as anti-angiogenic and anti-cancer agents” (Oncotarget, 2017)
